# Data reported in patent publication US9732091B2, “Tryptophanol-derived oxazoloisoindolinones: small-molecule P53 activators” (UNIVERSIDADE DO PORTO, priority 2013, dated 2017).
# Entries after “also recorded” stand apart in the source; their conditions may differ.
# Assays:
# HCT116 p53^+/+ = assay: Western blot of p53 and p53-target proteins, PARP cleavage, HCT116 p53^+/+; type: cell-based, human
# Experimental: FIG. 2 illustrates that SLMP53-1 increases the levels of proteins encoded by p53 target genes (MDM2, p21, PUMA and BAX), and leads to PARP cleavage in colon carcinoma cells with wt p53 (HCT116 p53^+/+), but not in colon carcinoma cells without wt p53 (HCT116 p53^−/−). Western blot analysis was performed for human colon carcinoma cells after 16 (B, D, E) and 24 (A, C, F) hours treatment with 15.5 μM of SLMP53-1, 135 nM doxorubicin (DOXO; positive control) or DMSO only. The protein expression levels were evaluated by quantification of Western Blot band intensity (with Bio-Profile Bio-1D++ software) using GAPDH as loading control.
# mutant p53 R280K = molecular target: T1, mutant p53 R280K (Homo sapiens, UniProt P04637, R280K); assay: reactivation of mutant p53 in yeast (growth, CFU), R280K; type: cell-based; conditions: 10 μM; yeast expressing R280K; 44 hours
# T1 construct: expressed in transfected cells
# Experimental: FIG. 6 illustrates that SLMP53-1 reactivates mutant p53s R273H, R175H and R280K in yeast. Yeast cells expressing R273H, R280K, Y220C or R175H were incubated in selective medium with 10 μM of SLMP53-1, 10 μM of CP-31398 (for R273H), 10 μM of PRIMA-1 (for R175H and R280K), 50 μM of PhiKan 083 (for Y220C) or DMSO only, for 44 hours. CP-31398, PRIMA-1 and PhiKan 083 were used as positive controls. Results are plotted setting as 100% growth the number of CFU obtained in the presence of DMSO only.
# It is also shown that SLMP53-1 can reactivate some mutant p53 forms, particularly R273H, R280K and R175H (FIG. 6).
# [1] = system: MDA-MB-231 cells (mutant p53 R280K); assay: sensitization to etoposide and doxorubicin, SRB assay, MDA-MB-231; type: cell-based, human
# Experimental: FIG. 9 illustrates that SLMP53-1 sensitizes breast cancer MDA-MB-231 cells to the effects of etoposide and doxorubicin. The MDA-MB-231 tumor cells (with the mutant p53 R280K) were treated for 48 hours with increasing concentrations of etoposide ([…] to 6.00 μM) or doxorubicin (187.5 to 750.0 nM) in the presence of a very low concentration (between GI5 to GI10; 4 μM) of SLMP53-1 or with DMSO only. Effect of compounds on cell growth was analyzed following 48 hours incubation, using the sulforhodamine B (SRB) assay. Results are mean±SEM of three to four independent experiments.
# It was also investigated if SLMP53-1 increased the sensitivity of MDA-MB-231 cells to the effects of various concentrations of etoposide (0.38 to 6.00 μM) and doxorubicin (187.5 to 750.0 nM). For that, a low concentration of SLMP53-1 (approximately the GI5 to GI10 concentration; 4 μM; without significant anti-proliferative effects on tumor cell lines) was used. […] Particularly, for 0.38 μM etoposide (for which an anti-proliferative effect is not observed), a 25% decrease of tumor cell growth was obtained in the presence of 4 μM of SLMP53-1.
# human lymphocytes = assay: cytokinesis-block micronucleus assay; type: cell-based
# Experimental: Concerning the genotoxicity assays, three concentrations (15.5, 7.25 and 1.55 μM) of SLMP53-1 were tested, in vitro, for potential genotoxicity to human lymphocytes. For that purpose, the cytokinesis-block micronucleus assay (an assay routinely used in mutagen/carcinogen screening programs) was used, which measures the ability of genotoxic agents to induce both chromosomal damage (clastogenic) and/or spindle dysfunction (aneugenic) effects.
# human wt p53 = molecular target: T2, human wt p53 (Homo sapiens, UniProt P04637); assay: yeast-based assay, yeast cells expressing human wt p53 (growth by CFU counts, cell cycle, actin Western blot)
# T2 construct: expressed in transfected cells
# Experimental: FIG. 1 illustrates that SLMP53-1 and SLMP53-2 increase the p53 effects in yeast. Yeast cells expressing human wt p53 and transformed with the empty vector (control yeast) were incubated in selective induction medium in the presence of 0.1-25 μM compound or DMSO only, for 42 hours. (A) Effect of 10 μM SLMP53-1 and SLMP53-2 on the p53-induced yeast growth inhibition. Results are plotted setting as one unit the p53-induced growth inhibition in the presence of DMSO only. Growth was estimated by colony-forming unit (CFU) counts. […] (B) Dose-response curve for SLMP53-1 in yeast cells expressing human p53 and control yeast. Cells were incubated in selective medium with 0.1-25 μM of SLMP53-1 or DMSO only. Results are plotted setting as 100% growth inhibition the number of CFU obtained in the presence of DMSO only. Data are mean±S.E.M. of three independent experiments (*P<0.05; unpaired Student's t-test). (C) Effect of SLMP53-1 and SLMP53-2 on p53-induced S-phase cell cycle arrest in yeast. Cell cycle phases were analyzed by flow cytometry using Sytox Green and quantified using ModFit LT software; quantification of cell cycle phases represent the mean values. (D) Increase of p53-induced actin protein expression levels by SLMP53-1 and SLMP53-2 in yeast expressing p53. Western Blot band intensity was quantified using Pgk1p as loading control (with Bio-Profile Bio-1D++ software).
# Using a yeast-based screening approach, the chiral compounds SLMP53-1 and SLMP53-2 were identified as potential activators of wt p53, from a chemical library of tryptophanol-derived oxazoloisoindolinones with general formula (I) shown in FIG. 1, wherein X, R^1, R^2, R^3, R^4, R^5, R^6, R^7, R^8, R^9 and R^10 are as defined herein, as well as their stereoisomers, enantiomers, ra.cemates, tautomers thereof or mixtures thereof; or a pharmaceutically acceptable salt, solvate or prodrug thereof. In the yeast cell model, compounds SLMP53-1 and SLMP53-2 increased the previously reported (Coutinho et al. FEBS Lett. 2009, 583, 3582-3588) p53-induced growth inhibition (FIGS. 1A and B) and S-phase cell cycle arrest (FIG. 1C).
# HCT116 p53^+/+ cells = assay: apoptosis by flow cytometry (FITC-Annexin V and propidium iodide), HCT116 p53^+/+; type: cell-based, human; conditions: GI50 and double GI50, 24 hours
# Experimental: Apoptosis was analyzed by flow cytometry using FITC-Annexin V and propidium iodide. The effect of compounds was analyzed after 24 hours treatment using the concentration of GI50 and double GI50. Histograms represent one of two independent experiments; quantification of cells in apoptosis represents the mean±S.E.M. of two independent experiments.
smiles,measurement,setting,value
C[C@]12OC[C@H](Cc3c[nH]c4ccccc34)N1C(=O)c1ccccc12 [SLMP53-1],"protein levels of p53 and of MDM2, p21, PUMA and BAX","HCT116 p53^+/+; 15.5 μM (GI50), 16 and 24 hours",increased
same,PARP cleavage,HCT116 p53^+/+; 24 hours,led to PARP cleavage
same,yeast growth inhibition,mutant p53 R280K,significant growth inhibition
same,decrease of tumor cell growth,[1]; 0.38 μM etoposide in the presence of 4 μM of SLMP53-1,25%
same,etoposide/doxorubicin-induced growth inhibition,"[1]; 4 μM SLMP53-1, three concentrations tested, 48 hours",increased
same,cytotoxic and genotoxic effects,human lymphocytes,no cytotoxic and genotoxic effects were observed
same,mutagenic potential (micronuclei frequency vs negative control),"human lymphocytes; 15.5, 7.25 and 1.55 μM, human lymphocytes, in vitro",does not possess mutagenic potential
same,p53-induced growth inhibition,"human wt p53; yeast expressing human wt p53, 10 μM, 42 hours, vs DMSO only",increased
same,p53-induced S-phase cell cycle arrest,"human wt p53; yeast expressing human wt p53, flow cytometry",increased
same,actin protein levels,"human wt p53; yeast expressing p53, Western blot, vs DMSO only",increased the actin protein levels
same,apoptosis,HCT116 p53^+/+ cells,induces early and late apoptosis; also recorded: apoptotic cell death
